Patent US20090105218A1, “CRTH2 Receptor Ligands For Therapeutic Use” (7TM PHARMA A/S, priority 2004, published 2009)

target: T1, human CRTH2 receptor (Homo sapiens, UniProt Q9Y5Y4, V204A); test: CRTH2 receptor binding assay ([3H]PGD2 competition on whole transfected cells); conditions: competition binding with 0.1 nM [3H]PGD2, whole cells expressing CRTH2, 3 h at 4° C.
T1 construct: expressed in transfected cells; host or cells: COS-7 (transient transfection)
T1 sequence (Q9Y5Y4 1-395 V204A): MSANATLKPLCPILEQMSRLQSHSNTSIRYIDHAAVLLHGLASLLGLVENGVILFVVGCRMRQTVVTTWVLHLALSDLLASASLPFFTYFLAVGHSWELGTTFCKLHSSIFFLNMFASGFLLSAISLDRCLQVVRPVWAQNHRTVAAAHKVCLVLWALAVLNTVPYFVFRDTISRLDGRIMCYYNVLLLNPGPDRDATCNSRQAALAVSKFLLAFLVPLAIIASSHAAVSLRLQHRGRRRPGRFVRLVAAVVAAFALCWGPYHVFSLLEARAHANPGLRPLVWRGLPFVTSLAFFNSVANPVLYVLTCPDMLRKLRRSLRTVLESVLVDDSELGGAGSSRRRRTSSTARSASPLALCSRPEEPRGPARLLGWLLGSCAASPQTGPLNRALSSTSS
Excerpt: Generation/origin of the cDNA Constructs. The coding sequence of the human CRTH2 receptor (genbank accession no NM_004778) was amplified by PCR from a human hippocampus cDNA library and inserted into the pcDNA3.1(+) expression vector (invitrogen) via 5′ HindIII and 3′ EcoRI. The sequence identity of the construct was verified by restriction endonuclease digests and sequencing in both directions on an ABI Prism (Applied Biosystems, Foster City, Calif.).
Cell Culture and Transfection. COS-7 cells were grown in Dulbecco's modified Eagle's medium (DMEM) 1885 supplemented with 10% fetal bovine serum, 100 units/ml penicillin, […] streptomycin, and kept at 37° C. in a 10% CO2 atmosphere. HEK293 cells were maintained in Minimum Essential medium (MEM) supplemented with 10% (v/v) heat inactivated fetal calf serum (HIFCS), 2 mM Glutamax™-I, 1% non essential amino acids (NEAA), 1% sodium pyruvate and 10 μg/ml gentamicin. For binding experiments, COS7 cells were transiently transfected with the CRTH2 receptor using a calcium phosphate-DNA coprecipitation method with the addition of chloroquine (as described by Holst B, Hastrup H, Raffetseder U, Martini L, Schwartz T W. J Biol. Chem. 2001 Jun. 8; 276(23):19793-9.)
Binding assay. 24 h after transfection COS-7 cells were seeded into 96 well plates at a density of 30.000 cells/well. Competition binding experiments on whole cells were then performed about 18-24 h later using 0.1 nM [^3H]PGD2 (NEN, 172 Ci/mmol) in a binding buffer consisting of HBSS (GIBCO) and 10 mM HEPES. Competing ligands were diluted in DMSO which was kept constant at 1% (v/v) of the final incubation volume. Total and nonspecific binding were determined in the absence and presence of 10 μM PGD2. Binding reactions were routinely conducted for 3 h at 4° C. and terminated by 2 washes (100 μl each) with ice cold binding buffer. Radioactivity was determined by liquid scintillation counting in a TOPCOUNTER (Packard) following over night incubation in Microscint 20. Stable HEK293 cells were seeded at a density of 30.000 cells/well 18-24 h prior to the binding assay which was performed essentially as described for COS7 cells above. Determinations were made in duplicates.
Curve analysis was performed with the GraphPadPrism software 3.0 (Graphpad Prism Inc., San Diego, USA) and IC50 values were calculated as a measure of the antagonistic potencies.

| SMILES | IC50 [nM] |
| --- | --- |
| O=C(CSCc1ccccc1)Nc1cccc(C(=O)Nc2ccccc2C(=O)O)c1 [B42] | < 500 |
| O=C(Nc1ccc(OC(F)(F)F)cc1)Nc1cccc(C(=O)Nc2ccccc2C(=O)O)c1 [B8, 2-{3-[3-(4-Trifluoromethoxyphenyl)ureido]benzoylamino}benzoic acid] | 500 to 5000 |
| Cc1c(S(=O)(=O)Nc2ccc(Br)cc2)csc1C(=O)Nc1ccc(Br)cc1C(=O)O [B27, 5-Bromo-2-[4-(4-bromophenylsulfamoyl)-3-methylthiophene-2-carbonylamino]benzoic acid] | < 500 |
| COc1ccc(C(=O)Nc2cccc(C(=O)Nc3ccccc3C(=O)O)c2)cc1 [B11, 2-[3-(4-Methoxybenzoylamino)benzoylamino]benzoic acid] | 500 to 5000 |
| O=C(Nc1ccc(Br)cc1C(=O)O)c1cccc(S(=O)(=O)Nc2ccc(OC(F)(F)F)cc2)c1 [B14, 5-Bromo-2-[3-(4-trifluoromethoxyphenylsulfamoyl)benzoylamino]benzoic acid] | 500 to 5000 |
| CCCOc1cccc(C(=O)Nc2cccc(C(=O)Nc3ccccc3C(=O)O)c2)c1 [B41] | < 500 |
| O=C(Nc1ccc(Br)cc1C(=O)O)c1cccc(S(=O)(=O)Nc2ccc(Br)cc2)c1 [B15, 5-Bromo-2-[3-(4-bromophenylsulfamoyl)benzoylamino]benzoic acid] | < 500 |
| O=C(Nc1ccc(Br)cc1C(=O)O)c1cccc(S(=O)(=O)Nc2ccc(Cl)nc2)c1 [B13, 5-Bromo-2-[3-(6-chloropyridin-3-ylsulfamoyl)benzoylamino]benzoic acid] | 500 to 5000 |
| O=C(Nc1ccc(Br)cc1C(=O)O)c1cccc(S(=O)(=O)Nc2ccc(I)cc2)c1 [B17, 5-Bromo-2-[3-(4-iodophenylsulfamoyl)benzoylamino]benzoic acid] | < 500 |
| O=C(Cc1ccccc1)Nc1cccc(C(=O)Nc2ccccc2C(=O)O)c1 [B37] | 500 to 5000 |
| O=C(COc1ccc(Cl)cc1Cl)Nc1cccc(C(=O)Nc2ccccc2C(=O)O)c1 [B3, 2-{3-[2-(2,4-Dichlorophenoxy)acetylamino]benzoylamino}-benzoic acid] | < 500 |
| O=C(COc1ccc(Cl)cc1)Nc1cc(C(=O)Nc2ccc(I)cc2C(=O)O)ccc1Cl [B12, 2-{4-Chloro-3-[2-(4-chloro-phenoxy)acetylamino]benzoylamino}-5-iodobenzoic acid] | 500 to 5000 |
| Cc1c(S(=O)(=O)Nc2ccc(OC(F)(F)F)cc2)csc1C(=O)Nc1ccccc1C(=O)O [B20, 2-[3-Methyl-4-(4-trifluoromethoxyphenylsulfamoyl)thiophene-2-carbonylamino]benzoic acid] | < 500 |
| O=C(Nc1ccc(Br)cc1C(=O)O)c1cccc(S(=O)(=O)Nc2ccc(Cl)cc2)c1 [B28, 5-Bromo-2-[3-(4-chlorophenylsulfamoyl)benzoylamino]benzoic acid] | < 500 |
| Cc1ccc(S(=O)(=O)Nc2cccc(C(=O)Nc3ccccc3C(=O)O)c2)cc1 [B5, 2-[3-(Toluene-4-sulfonylamino)benzoylamino]benzoic acid] | 500 to 5000 |
| O=C(Nc1ccccc1C(=O)O)c1cccc(NS(=O)(=O)c2ccc(F)cc2)c1 [B7, 2-[3-(4-Fluoro-benzenesulfonylamino)benzoylamino]benzoic acid] | 500 to 5000 |
| O=C(Nc1ccc(Br)cc1C(=O)O)c1ccc(Br)c(S(=O)(=O)Nc2ccc(Br)cc2)c1 [B26, 5-Bromo-2-[4-bromo-3-(4-bromophenylsulfamoyl)benzoylamino]benzoic acid] | < 500 |
| COc1ccc(C(=O)Nc2cccc(C(=O)Nc3ccccc3C(=O)O)c2)cc1OC [B9, 2-[3-(3,4-Dimethoxybenzoylamino)benzoylamino]benzoic acid] | 500 to 5000 |
| Cc1ccc(OCC(=O)Nc2cccc(C(=O)Nc3ccccc3C(=O)O)c2)cc1C [B32] | < 500 |
| O=C(Nc1ccc(Cl)cc1C(=O)O)c1cccc(S(=O)(=O)Nc2ccc(Cl)cc2)c1 [B30, 5-Chloro-2-[3-(4-chlorophenylsulfamoyl)benzoylamino]benzoic acid] | < 500 |
| O=C(Nc1ccc(Br)cc1C(=O)O)c1cccc(S(=O)(=O)Nc2cccc(Oc3ccccc3)c2)c1 [B16, 5-Bromo-2-[3-(3-phenoxyphenylsulfamoyl)benzoylamino]benzoic acid] | < 500 |
| O=C(Nc1ccccc1C(=O)O)c1cccc(NC(=O)c2cccs2)c1 [B33] | 500 to 5000 |
| CCCOc1ccc(C(=O)Nc2cccc(C(=O)Nc3ccccc3C(=O)O)c2)cc1 [B40] | < 500 |
| Cc1c(S(=O)(=O)Nc2cccc(Oc3ccccc3)c2)csc1C(=O)Nc1ccccc1C(=O)O [B22, 2-[3-Methyl-4-(3-phenoxyphenylsulfamoyl)thiophene-2-carbonylamino]-benzoic acid] | 500 to 5000 |
| COc1cc(C(=O)Nc2cccc(C(=O)Nc3ccccc3C(=O)O)c2)cc(OC)c1OC [B34] | 500 to 5000 |
| O=C(COCc1ccccc1)Nc1cccc(C(=O)Nc2ccccc2C(=O)O)c1 [B10, 2-[3-(2-Benzyloxyacetylamino)benzoylamino]benzoic acid] | 500 to 5000 |
| O=C(Nc1ccccc1C(=O)O)c1cccc(NC(=O)C(c2ccccc2)c2ccccc2)c1 [B36] | < 500 |

The next lines start with the values.

| IC50 [nM] | SMILES |
| --- | --- |
| 500 to 5000 | Cc1ccc(C(=O)Nc2ccccc2C(=O)O)cc1S(=O)(=O)NC1CCCCC1 [B73] |
| 500 to 5000 | COc1ccc(NS(=O)(=O)c2cc(C(=O)Nc3ccccc3C(=O)O)ccc2C)cc1 [B51] |
| < 500 | O=C(Nc1ccccc1C(=O)O)c1ccc(Br)c(S(=O)(=O)Nc2ccc(Br)cc2)c1 [B54] |
| > 5000 | O=C(Nc1ccccc1C(=O)O)c1cccc(S(=O)(=O)N2CCCC2)c1 [B74] |
| 500 to 5000 | O=C(Nc1ccccc1C(=O)O)c1cc(S(=O)(=O)N2CCCCCC2)ccc1Cl [B77] |
| < 500 | Cc1ccc(C(=O)Nc2ccccc2C(=O)O)cc1S(=O)(=O)Nc1ccc(Br)cc1 [B52] |
| 500 to 5000 | O=C(Nc1ccccc1C(=O)O)c1cc(S(=O)(=O)N2CCCC2)ccc1Cl [B79] |
| > 5000 | O=C(Nc1ccccc1C(=O)O)c1cc(S(=O)(=O)N2CCOCC2)ccc1Cl [B67] |
| < 500 | O=C(Nc1cccc(C(=O)Nc2ccccc2C(=O)O)c1)c1ccc(I)cc1 [B43] |
| 500 to 5000 | O=C(Nc1ccc(O)cc1C(=O)O)c1cccc(NC(=O)c2ccco2)c1 [B44] |
| 500 to 5000 | O=C(Nc1ccccc1C(=O)O)c1cc(S(=O)(=O)N2CCCC2)c(Cl)cc1Cl [B80] |
| 500 to 5000 | Cc1ccc(C(=O)Nc2ccccc2C(=O)O)cc1S(=O)(=O)N1CCCCCC1 [B75] |
| 500 to 5000 | Cc1ccc(C(=O)Nc2ccccc2C(=O)O)cc1S(=O)(=O)N1CCOCC1 [B71] |
| 500 to 5000 | O=C(Nc1ccccc1C(=O)O)c1ccc(Br)c(S(=O)(=O)NCc2ccccc2)c1 [B50] |
| 500 to 5000 | CCN(CC)S(=O)(=O)c1cc(C(=O)Nc2ccccc2C(=O)O)ccc1OC [B76] |
| 500 to 5000 | O=C(Nc1ccccc1C(=O)O)c1cccc(S(=O)(=O)NC2CCCCC2)c1 [B66] |
| 500 to 5000 | O=C(Nc1ccc(C(=O)Nc2ccccc2C(=O)O)cc1)c1ccc(Br)cc1 [B45] |
| 500 to 5000 | Cc1cccc(NS(=O)(=O)c2ccc(Cl)c(C(=O)Nc3ccccc3C(=O)O)c2)c1 [B57] |
| 500 to 5000 | COc1ccc(NS(=O)(=O)c2cccc(C(=O)Nc3ccccc3C(=O)O)c2)cc1 [B48] |
| < 500 | Cc1ccc(C(=O)Nc2ccccc2C(=O)O)cc1S(=O)(=O)N1CCCCC1 [B72] |
| 500 to 5000 | CCOc1ccc(NS(=O)(=O)c2cccc(C(=O)Nc3ccccc3C(=O)O)c2)cc1 [B61] |
| 500 to 5000 | O=C(Nc1ccccc1C(=O)O)c1cccc(S(=O)(=O)Nc2ccccc2)c1 [B47] |
